The text below walks through data of patent publication US8822216B2, “DNA regulatory element for the expression of transgenes in neurons of a subject and uses thereof” (priority 1997, dated 2014).

The subject of data set [1] is NMDA receptors. The experiment in a line: NMDA-mediated synaptic field potentials in hippocampal slices (DNQX, reduced Mg2+). In kind it is cell-based, mouse.
Data set [2] relates to Schaffer collateral-CA1 synapse. The experiment in a line: Chemically induced slow-onset potentiation (L-LTP) in hippocampal slices. In kind it is cell-based, mouse. The protocol: FIG. 13C) and FIG. 13D): Drug was added at the time indicated in both panels at a concentration of 100 µM. Each point in the time courses represents the mean fEPSP slope±SEM normalized to the average of the predrug fEPSP slope. Insets show representative fEPSP traces just before drug addition and 3 hours after.
Is this reduction due to a direct effect on downstream components of L-LTP, or is it due to a failure to fully initiate L-LTP? To begin to explore this question we examined L-LTP evoked by pharmacological activation of the […], which bypasses tetanic stimulation in area CA1. In addition to being evoked through multiple high frequency tetani to the Schaffer collaterals, L-LTP in area CA1 can be induced chemically through either application of D1/D5 dopamine receptor agonists or direct activators of adenylyl cyclase and PKA. In wild-type slices, application of agonists of D1/D5 dopamine receptors or the PKA agonist Sp-cAMPS, result in a slow-onset potentiation of synaptic transmission that is sensitive to protein and RNA-synthesis inhibitors, and mutually occlusive with L-LTP elicited by multiple high frequency trains (Huang and Kandel, 1994; Huang et al., 1994; Bolshakov et al., 1997). If overexpression of calcineurin directly affects the machinery necessary to produce the late phase, pharmacologically-induced L-LTP, that bypasses E- and I-LTP, would be impaired in CN98-mutant mice, as is the case with the late phase deficit in tPA-knockout mice (Huang et al., 1996a).
We tested the ability of both the D1/D5 receptor agonist 6-Br-APB (100 μM) and the PKA activator Sp-cAMPs (100 μM) to elicit slow-onset potentiation at the Schaffer collateral-CA1 synapse in CN98 mice.
For extracellular recordings, ACSF-filled glass electrodes (1-3 MΩ) were positioned in the stratum radiatum of area CA1. A bipolar nichrome stimulating electrode was also placed in stratum radiatum for stimulation of Schaffer collateral afferents (0.05 ms duration). […]

Data set [3] has as its system calcineurin. The experiment in a line: Phosphatase assay in hippocampal extracts. It is filed as biochemical, mouse. The protocol:
Phosphatase assays were performed according to Hubbard and Klee (1991). Briefly, mice were injected with 5 ml/kg of pentobarbital and decapitated. Hippocampi were dissected out, homogenized in 2 mM EDTA (pH 8), 250 mM sucrose, 0.1% Bmercaptoethanol and centrifuged. Supernatants were diluted in 40 mM Tris-HCl (pH 8), 0.1M NaCl, 0.04 mg/ml bovine serum albumin, 1 mM DTT, […] (Buffer 1) and incubated at 30° C. for 1 min in Buffer 1 containing 1 mM of the peptide [γ^32P]-RII subunit of cyclic AMP-dependent protein kinase (PKA) and either 0.1 mM calmodulin (Sigma) and 0.66 mM Ca^2+ or 0.33 mM EGTA (pH 7.5). The peptide ^97[Ala]-RII (Peninsula Labs) was labeled with 0.3 roM [γ^32P]ATP (NEN) using 4 mg catalytic subunit of PKA (Fluka). The reaction was stopped with 5% TCA in 0.1 M KH2P04 and the enzyme activity was calculated as previously described (Klee et al., 1983) and is expressed in nmol Pi release/min/mg protein. The protein concentration was determined using the bicinchroninic acid protein assay kit (Sigma). All samples were performed in triplicate.
Phosphatase assays were performed as described in Winder et al., 1997. Briefly, mice were injected with 5 ml/kg of pentobarbital and decapitated. Hippocampi were dissected out, homogenized in 2 mM EDTA (pH 8), 250 mM sucrose, 0.1 k β-mercaptoethanol. Supernatants were incubated at 30° C. for 1 min in presence of the […] [Ala97]-RII peptide and either 0.1 mM calmodulin and 0.66 mM Ca^2+ or 0.33 mM EGTA. The reaction was stopped and the enzyme activity calculated previously as described (Klee et al., 1983; 1987). The activity was expressed in nmol Pi released/min/mg protein. The protein concentration was determined using the bicinchroninic acid protein assay kit (Sigma). All samples were performed in triplicate.

Data set [4] has as its system Schaffer collateral-CA1 pyramidal cell synapse. In kind it is cell-based, mouse. The note with it: wild-type slices.
For data set [5] the test system is unchanged. The data set is described as follows: LTP induced by two 100 Hz trains in hippocampal slices. In kind it is cell-based, mouse. The note with it: for LTP induced by two 100 Hz trains in mutant mice after pretreatment: Tet-CN279 mutant slices, 750 nM calyculin A for 30 minutes. An excerpt:
In an attempt to isolate, in still another way, the novel intermediate phase in which PKA acts to suppress a phosphatase cascade we varied the number of tetanic trains of stimulation. One of the characteristics that distinguishes E-LTP from L-LTP is that weak stimuli such as a single 100 Hz train elicit E-LTP but not L-LTP. In contrast, to reliably induce L-LTP, 3-4 repeated 100 Hz trains are required. We therefore sought to determine if an intermediate phase of LTP could also be distinguished from these phases based on the strength of stimulus required. We elicited LTP with two 100 Hz trains spaced by 20 seconds. This protocol elicited LTP that was more robust than that elicited by one 100 Hz train, but less maintained than that elicited by four trains (FIG. 14C). In contrast to LTP elicited by a single 100 Hz train which is not affected by inhibitors of PKA (Huang et al., 1996), LTP elicited by two trains was partially sensitive to the PKA inhibitor KT5720 (no drug: […]; 1 μM KT5720: 153±5% of baseline at 1 hr, 5 slices, 4 mice; […]; FIG. 14D). […] These two types of experiments reveal a novel intermediate phase of LTP (I-LTP) exists that requires 1) a stronger stimulus than E-LTP, and 2) the activation of PKA.
Transverse hippocampal slices were prepared as previously described (Huang and Kandel, 1994). Mice of either sex, aged 7-18 weeks were used. In all appropriate cases, the experimenter was blinded to animal genotype. Hippocampi was rapidly unilaterally dissected out on ice, and […] slices were cut on a McIlwain tissue chopper and placed in oxygenated ACSF (NaCl, 124 mM, KCl, 4.4 mM; CaCl2, 2.5 mM; MgSO4, 1.3 mM; NaH2PO4, 1 mM; glucose, 10 mM; and NaHCO3 26 mM). The slices were then transferred to an interface chamber where they were subfused with oxygenated ACSF (1-2 ml/min) and allowed to equilibrate for 60-90 min at 28° C.
For extracellular recordings, ACSF-filled glass electrodes (1-3 MΩ) were positioned in the stratum radiatum of area CA1. A bipolar nichrome stimulating electrode was also placed in stratum radiatum for stimulation of Schaffer collateral afferents (0.05 ms duration). Unless otherwise mentioned, test stimuli were applied at a frequency of 1 per minute (0.017 Hz), and at a stimulus intensity that elicits a fEPSP slope that was 35% of the maximum. Experiments in which a significant change in the fiber volley amplitude occurred, were discarded. Drugs were applied through the perfusion medium. DL-AP5, calyculin A, KT5720 and R(+)-6-Bromo-[…]-3-allyl-1-phenyl-2,3,4-tetrahydro-1H-3-benzazepine (6-Br-APB) were purchased from Research Biochemicals International, Natick, Mass. DL-AP5 was dissolved directly into ACSF prior to use. Calyculin A, KT5720 and 6-Br-APB were dissolved as 100× stocks in DMSO and diluted into ACSF just before use. Sp-cAMPS (Biolog, La Jolla, Calif.) was dissolved directly in ACSF.

The test system of data set [6] is Schaffer collateral LTP in CA1 of hippocampal slices. The data set is described as follows: 10-Hz LTP in CA1 of hippocampal slices (field EPSP slope). It is filed as cell-based, mouse. To be noted: doxycycline 1 mg/ml drinking water 2 to 3 weeks, 1 ng/ml in perfusate.
Data set [7] concerns wild-type mice. The experiment in a line: Effect of doxycycline itself on memory of wild-type mice. It is filed as in vivo, mouse.
The subject of data set [8] is CaMKII. The data set is described as follows: CaMKII enzyme activity in striatum of B21 double transgenic mice on doxycycline. It is filed as in vivo, mouse. Here is the method:
In double transgenic mice, a high level of expression of the CaMKII-Asp mRNA was obtained (FIGS. 5B and 7A-D). To determine the effect of this expression on enzyme activity. CaMKII activity was measured in the striatum of the B21 line of mice (Table 1).
Brains were removed and the striatum was dissected and immediately homogenized in 20 mM tris-HCl (pH 7.5), 0.5 mM EGTA, 0.5 mM EDTA, 2 mM leupeptin, 0.4 mM dithiothreitol, 0.1 mM phenylmethysulfonyl flouride, 0.4 mM molybdate, and 10 mM sodium pyrophosphate. CaMKII enzyme activity was determined as described (Mayford et al., 1995). B21+Dox animals received doxycycline (1 mg/ml) plus 5% sucrose in the drinking water for 3 to 5 weeks. B21+Dox withdrawal animals received doxycycline (1 mg/ml) for 3 to 5 weeks and were then switched to normal water for 6 weeks. The number of mice is given in parentheses.

Where [9] appears, read: Dox withdrawal: doxycycline 1 mg/ml 3 to 5 weeks, then normal water 6 weeks.
Where [10] appears, read: doxycycline 1 mg/ml plus 5% sucrose in drinking water 3 to 5 weeks.

Consider `NC(CCCP(=O)(O)O)C(=O)O` (racemic) [DL-A95, DL-AP5], for which the “NMDA-mediated field potentials in 10 μM DNQX and reduced Mg2+ (50 μM)” value in data set [1] is on record as “completely antagonized”.
Regarding `C=CCN1CCc2c(cc(O)c(O)c2Br)[C@@H](c2ccccc2)C1` [6-Br-APB, R(+)-6-Bromo-7,0-dihydroxy-3-allyl-1-phenyl-2,3,4-tetrahydro-1H-3-benzazepine], the “fEPSP slope, % of baseline at 3 hr after drug application” value in data set [2] (CN98 mutant, 6-Br-APB 100 μM) worked out at 181±41%.
As for `O=C(O)CN(CCOCCOCCN(CC(=O)O)CC(=O)O)CC(=O)O` [EGTA], the “phosphatase enzyme activity in hippocampal extracts” value in data set [3] (CN98 mutant + EGTA) was found to be 0.32±0.14 nmol Pi/min/mg; in data set [3] (CN98 wild-type + EGTA) it was 0.427±0.16 nmol Pi/min/mg; in data set [3] (mutant (Tet-CN279+Tet-CN273) + EGTA), 0.287±0.17 nmol Pi/min/mg; in data set [3] (wild-type (Tet-CN279+Tet-CN273) + EGTA), 0.432 ± 0.11 nmol Pi/min/mg. For the same molecule, the “phosphatase activity” value in data set [3] (CN98 mutant and wild-type hippocampal extracts in the presence of EGTA) is listed as “virtually abolished”.
As to `CCCCCCOC(=O)[C@]1(O)C[C@@H]2O[C@@]1(C)n1c3ccccc3c3c4c(c5c6ccccc6n2c5c31)C(=O)NC4` [KT5720], the “decay of LTP induced by four 100 Hz trains, compared with anisomycin” value in data set [4] (KT5720 1 μM, 20 minute pretreatment, anisomycin 30 μM one hour prior to tetanus) is on record as “much more rapid decay”. The “fEPSP slope, % of baseline at 1 hr after two 100 Hz trains” value in data set [5] (wild-type slices, 1 μM KT5720) is 153±5%.
Turning to `Nc1ncnc2c1ncn2[C@@H]1O[C@@H]2COP(O)(=S)O[C@H]2[C@H]1O` (stereo partly drawn) [Sp-cAMPS], the “fEPSP slope, % of baseline at 3 hr after drug application” value amounted to 204±40% in data set [2] (CN98 wild-type, printed as Sp-cAMPS application, 100 μM) and 124±13% in data set [2] (wild-type, Sp-cAMPS 100 μM).
On to `COc1ccc(C[C@H]2NC[C@H](O)[C@H]2OC(C)=O)cc1` [anisomycin], for which the “LTP induced by four trains” value in data set [4] (anisomycin 30 μM) was “reduced”. Further, the “sensitivity of LTP elicited by two trains to preincubation with the drug” value in data set [5] (wild-type slices, anisomycin 30 μM) is given as “completely insensitive”.
In the case of `COC[C@@H]([C@H](O)[C@H](O)C(=O)NCC[C@H](C)c1nc(/C=C/C[C@@H]2O[C@]3(C[C@@H](O)[C@@H]2C)O[C@H]([C@H](C[C@H](O)[C@H](C)[C@H](O)[C@H](C)/C=C(C)/C(C)=C/C=C/C(C)=C\C#N)OC)[C@H](OP(=O)(O)O)C3(C)C)co1)N(C)C` [calyculin A], the “LTP induced by two 100 Hz trains in mutant mice after pretreatment” value is recorded as “indistinguishable from that seen in wild-type” in data set [5] and “rescues the deficit” in data set [5] (listed as Calyculin A).
For `C[C@H]1c2cccc(O)c2C(=O)C2=C(O)[C@]3(O)C(=O)C(C(N)=O)=C(O)[C@@H](N(C)C)[C@@H]3[C@@H](O)[C@@H]21` [doxycycline], the “field EPSP slope as percentage of pre-tetanus baseline after 10-Hz tetanus” value in data set [6] (B13 double transgenic mice) is listed as 132±10%; in data set [6] (wild-type mice), 122±6%. Also, the “fEPSP slope, % of baseline at 1 hr after two trains” value in data set [5] (Tet-CN279 on doxycycline (mutant sentence), 1 mg/ml in water supply, 1 ng/ml in ACSF) is recorded as 184±18%; in data set [5] (printed 'Tet-CN279 mutant mice on doxycycline' in the sentence on wild-type mice on or off doxycycline), 191±18%. Further, the memory result in data set [7] (doxycycline treatment in the adult animal) is recorded as “did not affect memory”. Also, the “adult spatial memory and memory for fear conditioning” value in data set [7] (wild-type mice, doxycycline 1 mg/ml during development) is “impaired”. For the same molecule, the figures for the “CaMKII Activity Ca^2+-independent (%)” value in data set [8] (setting [9]) and in data set [8] (setting [10]) were 5.70 ± 0.43% and 1.22 ± 0.03%, respectively. The results for the “CaMKII Activity With Ca^2+” value in data set [8] (setting [9]) and in data set [8] (setting [10]) were 14.2 ± 0.7 pmol/min/µg and 12.9 ± 1.5 pmol/min/µg, respectively. The “CaMKII Activity Without Ca^2+” value in data set [8] (setting [9]) is recorded as 0.80 ± 0.03(3) pmol min^−1 μg^−1; in data set [8] (setting [10]), 0.16 ± 0.04(5) pmol min^−1 μg^−1.
